From patent US9375005B2, “5-halogenopyrazole indanyl carboxamides” (BAYER CROPSCIENCE AG, priority 2012, dated 2016)
Marks after values point to notes of the source that are not given here.

Experiments:
Puccinia recondita = test: In vivo preventive test on Puccinia recondita (brown rust on wheat); details: wheat plants sprayed 24 h before contamination, grading 12 days after contamination
Protocol: Plants, used as controls, are treated with the mixture of acetone/tween/DMSO/water not containing the active material. After 24 hours, the plants are contaminated by spraying the leaves with an aqueous suspension of Puccinia recondita spores (100 000 spores per ml). […] Grading (% of efficacy) is carried out 12 days after the contamination, in comparison with the control plants.

Uromyces appendiculatus = test: In vivo preventive test on Uromyces appendiculatus (bean rust); details: bean plants sprayed 24 h before contamination, grading 11 days after contamination
Protocol: Bean plants (“Saxa” variety), sown in starter cups on a 50/50 peat soil-pozzolana substrate and grown at 24° C., are treated at the 2-leaf stage (9 cm height) by spraying with the active ingredient prepared as described above. Plants, used as controls, are treated with the mixture of acetone/tween/DMSO/water not containing the active material. After 24 hours, the plants are contaminated by spraying the leaves with an aqueous suspension of Uromyces appendiculatus spores (150 000 spores per ml). […] Grading (% of efficacy) is carried out 11 days after the contamination, in comparison with the control plants.

[1] = Measurement of log P values by HPLC on reversed phase columns (EEC directive 79/831 Annex V.A8); assay type: physicochemical
Pyrenophora teres = test: In vivo preventive test on Pyrenophora teres (net blotch on barley); details: barley plants sprayed 24 h before contamination, grading 14 days after contamination
Protocol: Barley plants (“Plaisant” variety), sown in starter cups on a 50/50 peat soil-pozzolana substrate and grown at 22° C., are treated at the 1-leaf stage (10 cm height) by spraying with the active ingredient prepared as described above. Plants, used as controls, are treated with the mixture of acetone/tween/DMSO/water not containing the active material. After 24 hours, the plants are contaminated by spraying the leaves with an aqueous suspension of Pyrenophora teres spores (12 000 spores per ml). The spores are collected from a 12-day-old culture. […] Grading (% of efficacy) is carried out 14 days after the contamination, in comparison with the control plants.

Sphaerotheca fuliginea = test: In vivo preventive test on Sphaerotheca fuliginea (powdery mildew on cucurbits); details: gherkin plants sprayed 24 h before contamination, grading 12 days after contamination
Protocol: Gherkin plants (“Vert petit de Paris” variety), sown in starter cups on a 50/50 peat soil-pozzolana substrate and grown at 24° C., are treated at the Z11 cotyledon stage by spraying with the active ingredient prepared as described above. Plants, used as controls, are treated with the mixture of acetone/tween/DMSO/water not containing the active material. After 24 hours, the plants are contaminated by spraying the cotyledons with an aqueous suspension of Sphaerotheca fuliginea spores (100 000 spores per ml). The spores are collected from infected plants. The contaminated to gherkin plants are incubated at about 20° C. and at 70-80% relative humidity. Grading (% of efficacy) is carried out 12 days after the contamination, in comparison with the control plants.

SMILES	Eff. % (Puccinia recondita; dose 500 ppm) [%]	Eff. % (Uromyces appendiculatus; dose 500 ppm) [%]	logP ([1]; method marked [a])	other results
CCC1(C)CCc2c(NC(=O)c3c(C(F)F)nn(C)c3Cl)cccc21 (single isomer, unassigned) [Example 52]	98	100	4.31[a]	Eff. % (Pyrenophora teres; dose 500 ppm): 80%
CC1Cc2cccc(NC(=O)c3c(C(F)F)nn(C)c3F)c2C1 (stereo not drawn) [Example 7]	98	100	3.31[a]	Eff. % (Sphaerotheca fuliginea; dose 500 ppm): 78%
Cn1nc(C(F)F)c(C(=O)Nc2cccc3c2CC2(CCCC2)C3)c1Cl [Example 15]	100	100	4.44[a]	Eff. % (Pyrenophora teres; dose 500 ppm): 71%
CC1CC(C)(C)c2c(I)ccc(NC(=O)c3c(C(F)F)nn(C)c3Cl)c21 (stereo not drawn) [Example 20]	98	99	4.91[a];	logP ([1]; method marked [b]): 4.89[b]; Eff. % (Pyrenophora teres; dose 500 ppm): 97%
CC(C)C1Cc2c(NC(=O)c3c(C(F)F)nn(C)c3Cl)cccc2C1C (stereo not drawn) [Example 21]	98	100	4.69[a]	Eff. % (Sphaerotheca fuliginea; dose 500 ppm): 89%
CC1CC(C)(C)c2c(Br)ccc(NC(=O)c3c(C(F)F)nn(C)c3Cl)c21 (stereo not drawn) [Example 36]	–	77	4.77[a];	logP ([1]; method marked [b]): 4.68[b]; Eff. % (Pyrenophora teres; dose 500 ppm): 75%
CC1CC(C)(C)c2cccc(NC(=O)c3c(C(F)F)nn(C)c3Br)c21 (stereo not drawn) [Example 42]	100	100	4.03[a]	Eff. % (Sphaerotheca fuliginea; dose 500 ppm): 100%
CC1CC(C)(C)c2c(Br)ccc(NC(=S)c3c(C(F)F)nn(C)c3F)c21 (stereo not drawn) [Example 55]	94	70	4.64[a];	logP ([1]; method marked [b]): 4.49[b]; Eff. % (Pyrenophora teres; dose 500 ppm): 75%
Cn1nc(C(F)F)c(C(=O)Nc2cccc3c2CC(C2CCCC2)C3)c1Cl (stereo not drawn) [Example 57]	94	100	5.03[a]	Eff. % (Pyrenophora teres; dose 500 ppm): 97%
CON=C1CC(C)c2c(NC(=O)c3c(C(F)F)nn(C)c3F)cccc21 (stereo not drawn) [Example 58]	75	95	2.75[a]	–
CC1Cc2c(NC(=O)c3c(C(F)F)nn(C)c3Cl)cccc2C1C (stereo not drawn) [Example 62]	94	100	3.87[a]	–
CC1c2c(NC(=O)c3c(C(F)F)nn(C)c3Br)cccc2C(C)(C)C1C (stereo not drawn) [Example 65]	94	95	4.23[a]	–
Cn1nc(C(F)F)c(C(=O)Nc2cccc3c2CCC3C(C)(C)C)c1Cl (stereo not drawn) [Example 67]	94	100	4.64[a]	–
CC(C)C1Cc2c(NC(=O)c3c(C(F)F)nn(C)c3Br)cccc2C1(C)C (stereo not drawn) [Example 68]	98	100	4.92[a]	–
Cn1nc(C(F)F)c(C(=O)Nc2cccc3c2CC(C)(C)C3)c1Br [Example 71]	98	99	3.87[a]	–
Cn1nc(C(F)F)c(C(=S)Nc2cccc3c2CCC3C(C)(C)C)c1Cl (stereo not drawn) [Example 74]	100	100	4.64[a]	Eff. % (Sphaerotheca fuliginea; dose 500 ppm): 98%
CC1CC2(CC2)c2cccc(NC(=O)c3c(C(F)F)nn(C)c3Br)c21 (stereo not drawn) [Example 76]	98	100	3.83[a]	–
CC1c2cccc(NC(=O)c3c(C(F)F)nn(C)c3Cl)c2CC1(C)C (stereo not drawn) [Example 77]	100	100	4.19[a]	Eff. % (Sphaerotheca fuliginea; dose 500 ppm): 98%

SMILES	Eff. % (Puccinia recondita; dose 500 ppm) [%]	Eff. % (Uromyces appendiculatus; dose 500 ppm) [%]	logP ([1]; method marked [a])	other results
CC(C)CC1CC(C)c2c(NC(=O)c3c(C(F)F)nn(C)c3Cl)cccc21 (stereo not drawn) [Example 79]	94	100	4.98[a]	Eff. % (Pyrenophora teres; dose 500 ppm): 92%
CC1c2cccc(NC(=O)c3c(C(F)F)nn(C)c3Br)c2CC1(C)C (stereo not drawn) [Example 81]	98	99	4.16[a]	–
CCON=C1CC(C)c2c(NC(=O)c3c(C(F)F)nn(C)c3Cl)cccc21 (stereo not drawn) [Example 82]	88	99	3.42[a]	Eff. % (Pyrenophora teres; dose 500 ppm): 75%
CCCON=C1CC(C)c2c(NC(=O)c3c(C(F)F)nn(C)c3Cl)cccc21 (stereo not drawn) [Example 84]	81	–	3.92[a]	Eff. % (Pyrenophora teres; dose 500 ppm): 75%
CC1c2c(NC(=O)c3c(C(F)F)nn(C)c3Cl)cccc2C(C)(C)C1C (stereo not drawn) [Example 85]	98	99	4.2[a]	Eff. % (Pyrenophora teres; dose 500 ppm): 92%
CON=C1CC(C)c2c(NC(=O)c3c(C(F)F)nn(C)c3Cl)cccc21 (stereo not drawn) [Example 88]	81	100	2.98[a]	–
CC(C)C1Cc2c(NC(=S)c3c(C(F)F)nn(C)c3Cl)cccc2C1(C)C (stereo not drawn) [Example 92]	–	–	4.9[a]	Eff. % (Sphaerotheca fuliginea; dose 100 ppm): 100%; Eff. % (Puccinia recondita; dose 100 ppm): 94%; Eff. % (Uromyces appendiculatus; dose 100 ppm): 100%; Eff. % (Pyrenophora teres; dose 100 ppm): 70%
CC(C)C1Cc2c(NC(=S)c3c(C(F)F)nn(C)c3Cl)cccc2C1(C)C (stereo not drawn) [Example 94, 5-chloro-3-(difluoromethyl)-N-(2-isopropyl-1,1-dimethyl-2,3-dihydro-1H-inden-4-yl)-1-methyl-1H-pyrazole-4-carbothioamide]	89	99	–	logP ([1]; pH 2.7): 4.92[a]
CC(C)C1Cc2c(NC(=S)c3c(C(F)F)nn(C)c3F)cccc2C1(C)C (stereo not drawn) [Example 95]	–	–	4.76[a]	Eff. % (Sphaerotheca fuliginea; dose 100 ppm): 100%; Eff. % (Puccinia recondita; dose 100 ppm): 98%; Eff. % (Uromyces appendiculatus; dose 100 ppm): 100%; Eff. % (Pyrenophora teres; dose 100 ppm): 70%
CC1CC(CC(C)(C)C)c2cccc(NC(=S)c3c(C(F)F)nn(C)c3Cl)c21 (stereo not drawn) [Example 98]	98	100	5.31[a]	Eff. % (Sphaerotheca fuliginea; dose 500 ppm): 98%
CC(C)CC1CC(C)c2c(NC(=O)c3c(C(F)F)nn(C)c3Cl)cccc21 (stereo not drawn) [Example 99]	–	–	5.01[a]	Eff. % (Puccinia recondita; dose 100 ppm): 100%; Eff. % (Uromyces appendiculatus; dose 100 ppm): 100%
CC(C)C1Cc2c(NC(=S)c3c(C(F)F)nn(C)c3Br)cccc2C1(C)C (stereo not drawn) [Example 102]	–	–	4.87[a]	Eff. % (Puccinia recondita; dose 100 ppm): 94%; Eff. % (Uromyces appendiculatus; dose 100 ppm): 100%
CC1CC2(CCCCC2)c2cccc(NC(=S)c3c(C(F)F)nn(C)c3F)c21 (stereo not drawn) [Example 104]	–	–	4.88[a]	Eff. % (Sphaerotheca fuliginea; dose 100 ppm): 100%; Eff. % (Puccinia recondita; dose 100 ppm): 100%; Eff. % (Uromyces appendiculatus; dose 100 ppm): 100%
CCC1Cc2c(NC(=S)c3c(C(F)F)nn(C)c3Cl)cccc2C1(C)C (stereo not drawn) [Example 105]	–	–	4.58[a]	Eff. % (Sphaerotheca fuliginea; dose 100 ppm): 94%; Eff. % (Puccinia recondita; dose 100 ppm): 100%; Eff. % (Uromyces appendiculatus; dose 100 ppm): 100%; Eff. % (Pyrenophora teres; dose 100 ppm): 70%
CC1CC2(CCCCC2)c2cccc(NC(=S)c3c(C(F)F)nn(C)c3Cl)c21 (stereo not drawn) [Example 108]	–	–	5.01[a]	Eff. % (Puccinia recondita; dose 100 ppm): 90%; Eff. % (Uromyces appendiculatus; dose 100 ppm): 100%
CC1CCc2c(NC(=O)c3c(C(F)F)nn(C)c3Cl)cccc21 (stereo not drawn) [Example 109]	–	–	3.52[a]	Eff. % (Puccinia recondita; dose 100 ppm): 94%; Eff. % (Uromyces appendiculatus; dose 100 ppm): 99%
CC1CC2(CCCCC2)c2cccc(NC(=O)c3c(C(F)F)nn(C)c3Cl)c21 (stereo not drawn) [Example 110]	–	–	5.01[a]	Eff. % (Puccinia recondita; dose 100 ppm): 83%; Eff. % (Uromyces appendiculatus; dose 100 ppm): 99%
CC1CC2(CCCC2)c2cccc(NC(=O)c3c(C(F)F)nn(C)c3Cl)c21 (stereo not drawn) [Example 111]	–	–	4.64[a]	Eff. % (Puccinia recondita; dose 100 ppm): 98%; Eff. % (Uromyces appendiculatus; dose 100 ppm): 100%
